Test results from PMC6001238, “Iterative Chemical Engineering of Vancomycin Leads to Novel Vancomycin Analogs With a High in Vitro Therapeutic Index” (Frontiers in Microbiology, 2018).
Converted amounts (≈) assume the structure as drawn.

Tests used:
[1] = system: S. aureus VSSA (ATCC 6538); experiment: MIC, broth microdilution, vancomycin-sensitive S. aureus (VSSA/MSSA, ATCC 6538); format: cell-based, Staphylococcus aureus; conditions: for MIC: Staphylococcus aureus VSSA, read-out: MIC; for MIC-fold improvement vs. vancomycin: VSSA, ratio of MIC of vancomycin and MIC of analogue
Summary of the method: (§1)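 MIC values come from broth microdilution run to CLSI susceptibility-testing standards. Ultrapure water and uninoculated broth served as controls. In one series, vancomycin at a final 10 μM was co-dosed with the analogue or comparator antibiotic.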

S. aureus VRSA = experiment: MIC, broth microdilution, vancomycin-resistant S. aureus (VRSA); format: cell-based, Staphylococcus aureus; conditions: for MIC: Staphylococcus aureus VRSA, read-out: MIC; for MIC-fold improvement vs. vancomycin: VRSA, ratio of MIC of vancomycin and MIC of analogue
Summary of the method: as §1

MRSA KS2 = experiment: MIC, broth microdilution, MRSA KS2; format: cell-based, Staphylococcus aureus; conditions: for MIC-fold improvement vs. vancomycin: MRSA KS2, ratio of MIC of vancomycin and MIC of analogue; for MIC: Staphylococcus aureus MRSA KS2, read-out: MIC
Summary of the method: as §1

[2] = system: human cervix carcinoma (HeLa) cells; experiment: Cytostatic activity, HeLa cell proliferation; format: cell-based; conditions: mean ± SD of three experiments; highest concentration tested 250 µM; 4 days; read-out: Toxicity (IC50) HeLa
Summary of the method: (§2)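 Coulter counter cell counts after 37°C culture with compound; IC50 = concentration giving 50% growth inhibition vs negative control. Incubation: L1210 2 d, CEM 3 d, HeLa 4 d. Suspension density before mixing with an equal volume of dilution: 300,000–500,000 cells/mL.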

MRSA KS6 = experiment: MIC, broth microdilution, MRSA KS6; format: cell-based, Staphylococcus aureus; conditions: for MIC-fold improvement vs. vancomycin: MRSA KS6, ratio of MIC of vancomycin and MIC of analogue; for MIC: Staphylococcus aureus MRSA KS6, read-out: MIC
Summary of the method: as §1

E. faecalis VRE 53 = experiment: MIC, broth microdilution, vancomycin-resistant E. faecalis VRE 53 (VanA); format: cell-based, Enterococcus faecalis; conditions: for MIC: Enterococcus faecalis VRE 53 (vancomycin-resistant), read-out: MIC; for MIC-fold improvement vs. vancomycin: VRE 53, ratio of MIC of vancomycin and MIC of analogue
Summary of the method: as §1

E. faecalis VRE 37 = experiment: MIC, broth microdilution, vancomycin-resistant E. faecalis VRE 37 (VanA); format: cell-based, Enterococcus faecalis; conditions: for MIC: Enterococcus faecalis VRE 37 (vancomycin-resistant), read-out: MIC
Summary of the method: as §1

MRSA KS89 = experiment: MIC, broth microdilution, MRSA KS89; format: cell-based, Staphylococcus aureus; conditions: for MIC-fold improvement vs. vancomycin: MRSA KS8, ratio of MIC of vancomycin and MIC of analogue; for MIC: Staphylococcus aureus MRSA KS8, read-out: MIC
Summary of the method: as §1

[3] = system: human T-lymphocyte (CEM) cells; experiment: Cytostatic activity, CEM cell proliferation; format: cell-based; conditions: mean ± SD of three experiments; highest concentration tested 250 µM; 3 days; read-out: Toxicity (IC50) CEM
Summary of the method: as §2

E. faecalis VSE 1 = experiment: MIC, broth microdilution, vancomycin-sensitive E. faecalis (VSE 1); format: cell-based, Enterococcus faecalis; conditions: for MIC: Enterococcus faecalis VSE 1 (vancomycin-sensitive), read-out: MIC; for MIC-fold improvement vs. vancomycin: VSE 1, ratio of MIC of vancomycin and MIC of analogue
Summary of the method: as §1

E. faecalis VRE 6 = experiment: MIC, broth microdilution, vancomycin-resistant E. faecalis VRE 6 (VanA); format: cell-based, Enterococcus faecalis; conditions: for MIC: Enterococcus faecalis VRE 6 (vancomycin-resistant), read-out: MIC; for MIC-fold improvement vs. vancomycin: VRE 6, ratio of MIC of vancomycin and MIC of analogue
Summary of the method: as §1

[4] = system: L1210, CEM and HeLa cell lines; experiment: Cytostatic activity, average or summary over L1210, CEM and HeLa; format: cell-based; conditions: average of L1210, CEM and HeLa; read-out: Toxicity (IC50) Average
Summary of the method: as §2

[5] = system: Murine leukemia (L1210) cells; experiment: Cytostatic activity, L1210 cell proliferation; format: cell-based; conditions: mean ± SD of three experiments; highest concentration tested 250 µM; 2 days; read-out: Toxicity (IC50) L1210
Summary of the method: as §2

E. faecalis VRE 29 = experiment: MIC, broth microdilution, vancomycin-resistant E. faecalis VRE 29 (VanA); format: cell-based, Enterococcus faecalis; conditions: for MIC: Enterococcus faecalis VRE 29 (vancomycin-resistant), read-out: MIC; for MIC-fold improvement vs. vancomycin: VRE 29, ratio of MIC of vancomycin and MIC of analogue
Summary of the method: as §1

MRSA KS1 = experiment: MIC, broth microdilution, MRSA KS1; format: cell-based, Staphylococcus aureus; conditions: for MIC-fold improvement vs. vancomycin: MRSA KS1, ratio of MIC of vancomycin and MIC of analogue; for MIC: Staphylococcus aureus MRSA KS1, read-out: MIC
Summary of the method: as §1

S. aureus VISA/HIP5827 = experiment: MIC, broth microdilution, vancomycin-intermediate S. aureus VISA HIP5827; format: cell-based, Staphylococcus aureus; conditions: for MIC: Staphylococcus aureus VISA/HIP5827, read-out: MIC; for MIC-fold improvement vs. vancomycin: VISA/HIP5827, ratio of MIC of vancomycin and MIC of analogue
Summary of the method: as §1

Row | Structure (SMILES) | MIC [1] [µM] | MIC-fold improvement vs. vancomycin [1] | MIC-fold improvement vs. vancomycin (S. aureus VRSA) | MIC-fold improvement vs. vancomycin (MRSA KS2) | MIC (MRSA KS2) [µM] | IC50 [2] [µM] | MIC-fold improvement vs. vancomycin (MRSA KS6) | MIC (MRSA KS6) [µM] | MIC (E. faecalis VRE 53) [µM] | MIC-fold improvement vs. vancomycin (E. faecalis VRE 53) | MIC (E. faecalis VRE 37) [µM] | MIC-fold improvement vs. vancomycin (MRSA KS89) | MIC (MRSA KS89) [µM] | IC50 [3] [µM] | MIC (E. faecalis VSE 1) [µM] | MIC-fold improvement vs. vancomycin (E. faecalis VSE 1) | MIC (E. faecalis VRE 6) [µM] | MIC-fold improvement vs. vancomycin (E. faecalis VRE 6) | IC50 [4] [µM] | IC50 [5] [µM] | further results
1 | CN[C@H](CC(C)C)C(=O)N[C@H]1C(=O)N[C@@H](CC(N)=O)C(=O)N[C@H]2C(=O)N[C@H]3C(=O)N[C@H](C(=O)N[C@H](C(=O)NCCNC(=O)/C=C/c4ccc(Cl)cc4)c4cc(O)cc(O)c4-c4cc3ccc4O)[C@H](O)c3ccc(c(Cl)c3)Oc3cc2cc(c3O[C@@H]2O[C@H](CO)[C@@H](O)[C@H](O)[C@H]2O[C@H]2C[C@](C)(N)[C@H](O)[C@H](C)O2)Oc2ccc(cc2Cl)[C@H]1O [Vanc-20] | 0.39 (≈ 0.646 µg/mL) | 2 | 32 | 4 | 0.20 (≈ 0.331 µg/mL) | 80 ± 3 | 2 | 0.39 (≈ 0.646 µg/mL) | 12.5 (≈ 20.7 µg/mL) | 32 | 12.5 (≈ 20.7 µg/mL) | 2 | 0.39 (≈ 0.646 µg/mL) | 146 ± 24 | 0.39 (≈ 0.646 µg/mL) | 4 | 1.56 (≈ 2.58 µg/mL) | 128 | 121 | 138 ± 5 | MIC (S. aureus VRSA): 3.13 µM (≈ 5.18 µg/mL); MIC (E. faecalis VRE 29): 6.25 µM (≈ 10.3 µg/mL); MIC-fold improvement vs. vancomycin (E. faecalis VRE 29): 64; MIC-fold improvement vs. vancomycin (MRSA KS1): 2; MIC (MRSA KS1): 0.39 µM (≈ 0.646 µg/mL); MIC (S. aureus VISA/HIP5827): 0.39 µM (≈ 0.646 µg/mL); MIC-fold improvement vs. vancomycin (S. aureus VISA/HIP5827): 16
2 | CN[C@H](CC(C)C)C(=O)N[C@H]1C(=O)N[C@@H](CC(N)=O)C(=O)N[C@H]2C(=O)N[C@H]3C(=O)N[C@H](C(=O)N[C@H](C(=O)NCCNC(=O)/C=C/c4cccc(OC)c4)c4cc(O)cc(O)c4-c4cc3ccc4O)[C@H](O)c3ccc(c(Cl)c3)Oc3cc2cc(c3O[C@@H]2O[C@H](CO)[C@@H](O)[C@H](O)[C@H]2O[C@H]2C[C@](C)(N)[C@H](O)[C@H](C)O2)Oc2ccc(cc2Cl)[C@H]1O [Vanc-23] | 0.39 (≈ 0.644 µg/mL) | 2 | 16 | 2 | 0.39 (≈ 0.644 µg/mL) | > 250 | 1 | 0.78 (≈ 1.29 µg/mL) | 25 (≈ 41.3 µg/mL) | 16 | 25 (≈ 41.3 µg/mL) | 1 | 0.78 (≈ 1.29 µg/mL) | > 250 | 0.39 (≈ 0.644 µg/mL) | 4 | 3.13 (≈ 5.17 µg/mL) | 64 | > 250 | > 250 | MIC (S. aureus VRSA): 6.25 µM (≈ 10.3 µg/mL); MIC-fold improvement vs. vancomycin (E. faecalis VRE 37; VRE 37, ratio of MIC of vancomycin and MIC of analogue): 16; MIC (E. faecalis VRE 29): 12.5 µM (≈ 20.6 µg/mL); MIC-fold improvement vs. vancomycin (E. faecalis VRE 29): 32; MIC-fold improvement vs. vancomycin (MRSA KS1): 1; MIC (MRSA KS1): 0.78 µM (≈ 1.29 µg/mL); MIC (S. aureus VISA/HIP5827): 0.78 µM (≈ 1.29 µg/mL); MIC-fold improvement vs. vancomycin (S. aureus VISA/HIP5827): 8
3 | CNC(CC(C)C)C(=O)NC1C(=O)NC(CC(N)=O)C(=O)NC2C(=O)NC3C(=O)NC(C(=O)NC(C(=O)NCCCNC(=O)c4cc5ccccc5s4)c4cc(O)cc(O)c4-c4cc3ccc4O)C(O)c3ccc(c(Cl)c3)Oc3cc2cc(c3OC2OC(CO)C(O)C(O)C2OC2CC(C)(N)C(O)C(C)O2)Oc2ccc(cc2Cl)C1O (stereo not drawn) [Vanc-26] | 0.39 (≈ 0.65 µg/mL) | 2 | 32 | 2 | 0.39 (≈ 0.65 µg/mL) | 42 ± 23 | 2 | 0.39 (≈ 0.65 µg/mL) | 25 (≈ 41.6 µg/mL) | 16 | 12.5 (≈ 20.8 µg/mL) | 2 | 0.39 (≈ 0.65 µg/mL) | > 250 | 0.20 (≈ 0.333 µg/mL) | 8 | 3.13 (≈ 5.21 µg/mL) | 64 | 181 | > 250 | MIC (E. faecalis VRE 29): 6.25 µM (≈ 10.4 µg/mL); MIC-fold improvement vs. vancomycin (E. faecalis VRE 29): 64; MIC-fold improvement vs. vancomycin (MRSA KS1): 2; MIC (MRSA KS1): 0.39 µM (≈ 0.65 µg/mL); MIC (S. aureus VISA/HIP5827): 0.39 µM (≈ 0.65 µg/mL); MIC-fold improvement vs. vancomycin (S. aureus VISA/HIP5827): 16
